Reference: patent US6203976A, “Methods of preparing compositions comprising chemicals capable of transcriptional modulation” (OSI Pharmaceuticals, Inc., priority 1994, dated 2001)
Read-outs that look alike come from different tables or passages of the source.

What was measured:
[1] = system: human growth hormone (532) promoter; assay: High-throughput luciferase reporter assay, human Growth Hormone promoter (Screen III); format: cell-based; settings: 532 cells, 6 hours; for FOLD INHIBITION RELATIVE TO SOLVENT CONTROL, hGH: Screen III inhibitors; for FOLD INDUCTION RELATIVE TO SOLVENT CONTROL, hGH: Screen III activators
MMTV (M10) promoter = assay: High-throughput luciferase reporter assay, MMTV promoter (Screen III); format: cell-based, mouse; settings: M10 cells, 6 hours; for FOLD INHIBITION RELATIVE TO SOLVENT CONTROL, MMTV: Screen III inhibitors; for FOLD INDUCTION RELATIVE TO SOLVENT CONTROL, MMTV: Screen III activators
Description: pMluci and pSV2Neo, an antibiotic resistance plasmid (112), were co-transfected into NIH/3T3 mouse fibroblast cells using the calcium phosphate precipitation method (103) with a commercially available kit (Pharmacia, Piscataway N.J.). Two days later, cells were transferred to media containing 0.4 mg/ml G418 and were grown for an additional 10-14 days. G418-resistant clones were isolated by standard methods. Once sufficient cell numbers were obtained, clones were analyzed based on several criteria: constitutive luciferase production, induction of luciferase expression by dexamethasone (1 μm, Sigma, St. Louis, Mo.), satisfactory attachment to microtiter plates used in the high-throughput screen and acceptable standard deviation in multiple luciferase expression assays (see below for assay protocol). This analysis was carried out using the luciferase assay conditions described above. Of the clones which satisfied the above criteria for the high throuphput screen, one clone, M10, was selected for use.

[2] = system: human G-CSF (G21) promoter; settings: Screen III inhibitors; G21 cells; 6 hours
[3] = system: human G-CSF (G21) promoter; assay: High-throughput luciferase reporter assay, G-CSF promoter (Screen III); settings: G21 cells, 6 hours; for FOLD INHIBITION RELATIVE TO SOLVENT CONTROL, GCSF: Screen III inhibitors; for FOLD INDUCTION RELATIVE TO SOLVENT CONTROL, GCSF: Screen III activators

SMILES	FOLD INHIBITION RELATIVE TO SOLVENT CONTROL, hGH [1] [fold]	FOLD INHIBITION RELATIVE TO SOLVENT CONTROL, MMTV (MMTV (M10) promoter) [fold]	FOLD INHIBITION RELATIVE TO SOLVENT CONTROL, GCSF [2] [fold]	FOLD INHIBITION RELATIVE TO SOLVENT CONTROL, GCSF [3] [fold]	FOLD INDUCTION RELATIVE TO SOLVENT CONTROL, hGH [1] [fold]	FOLD INDUCTION RELATIVE TO SOLVENT CONTROL, MMTV (MMTV (M10) promoter) [fold]	FOLD INDUCTION RELATIVE TO SOLVENT CONTROL, GCSF [3] [fold]
O=S(=O)(O)c1ccc2c(N=Nc3ccc(S(=O)(=O)O)c4ccccc34)c(O)c(S(=O)(=O)O)cc2c1 [compound 512]	5.26	0.68	0.81	–	–	–	–
O=S(=O)(O)c1ccc(-c2nnc(-c3ccnc(-c4nnc(-c5ccc(S(=O)(=O)O)cc5)c(-c5ccc(S(=O)(=O)O)cc5)n4)c3)nc2-c2ccc(S(=O)(=O)O)cc2)cc1 [compound 1604]	5.00	0.97	–	0.77	–	–	–
CC1(C)[C@H]2CC[C@]1(C)[C@H](O)C2 [compound 1635]	9.09	0.99	0.71	–	–	–	–
C(=Cc1ccccn1)c1ccccn1 [compound 1640]	5.00	0.59	–	0.79	–	–	–
c1ccc(-c2nccnc2-c2ccccn2)nc1 [compound 1641]	5.55	0.60	–	0.83	–	–	–
O=S(=O)(O)c1ccc(-c2ccnc(-c3nnc(-c4ccc(S(=O)(=O)O)cc4)c(-c4ccc(S(=O)(=O)O)cc4)n3)c2)cc1 [compound 1648]	7.69	1.00	–	0.86	–	–	–
COC(=O)CP(=O)(OCC(F)(F)F)OCC(F)(F)F [compound 1651]	3.57	0.70	–	0.69	–	–	–
O=C(O)c1cc(C(F)(F)F)ccc1C(F)(F)F [compound 1655]	4.76	0.81	–	0.54	–	–	–
OCC1CC2C3CC(CO)C(C3)C2C1 (stereo not drawn) [compound 1678]	–	–	–	–	7.08	0.89	0.36
N#Cc1cccc(Br)c1 [compound 1703]	10.00	0.90	–	0.76	–	–	–
N#Cc1ccc(Br)cc1 [compound 1704]	4.16	0.94	–	0.77	–	–	–
O=C(c1ccccc1)c1ccc(Br)cc1 [compound 1705]	14.28	0.62	–	0.54	–	–	–
Cc1cc(=O)oc2c(CN(CC(=O)O)CC(=O)O)c(O)ccc12 [compound 1712]	8.33	0.94	–	0.74	–	–	–
CC1(C)[C@H]2CC[C@]1(C)C(=O)C2 [compound 1720]	4.76	0.66	0.65	–	–	–	–
CCOC(=O)c1c[nH]c(=S)[nH]c1=O [compound 1740]	–	–	–	–	17.77	0.87	0.74
N[C@@H](CCCCNC(=O)OCc1ccccc1)C(=O)O [compound 1747]	–	–	–	–	6.16	0.86	0.78
Cc1cc(=O)oc2cc(OCC(=O)O)ccc12 [compound 1764]	7.14	0.82	–	0.55	–	–	–
Cc1c(C(=O)O)c(O)cc2c1C(=O)c1c(O)c([C@@H]3O[C@H](CO)[C@@H](O)[C@H](O)[C@H]3O)c(O)c(O)c1C2=O [compound 1770]	10.00	0.57	–	0.54	–	–	–
NCCC(=O)N[C@@H](Cc1cnc[nH]1)C(=O)O [compound 1771]	10.00	0.72	–	0.71	–	–	–
